“And” between values parts separate entries of the source, which are not always exact repeats. Equal values may be shown once. Read-outs that look alike come from different tables or passages of the source.
Legend:
[1] = Pharmacokinetic study in cannulated male Sprague-Dawley rats (serum and urine, HPLC); format: in vivo, rat; conditions: for CL renal: serum and urine; for AUC: n = 4 (abstract); for bioavailability: read-out: Bioavailability (F%); for AUC(0-inf): n = 4; for Cumulative amount excreted in urine: over 72 h; for CLhepatic: CLtotal − CLrenal
Excerpt: The HPLC system used was a Shimadzu HPLC (Kyoto, Japan), consisting of two LC-10A pumps, a SIL-10AF autoinjector, a SPD-M10A photodiode array detector, and a SCL-10A system controller. Data collection and integration were achieved using Shimadzu EZ Start Class VP (version 7.4) software. A Phenomenex Luna C18(2) (5 μm, 250 × 4.60 mm) column was used. The mobile phase consisted of acetonitrile and water (62 : 38 v/v) that were filtered and degassed under reduced pressure prior to use. Pinosylvin was used as the internal standard. […] Ultraviolet detection was carried out at 327 nm. […] The bias of the assay was <15% and was within 13% at the LOQ [9].
Male Sprague-Dawley rats (≈200 g) were obtained from Simonsen Laboratories (Gilroy, CA, USA) and allowed food (Purina Rat Chow 5001) and water ad libitum upon arrival to the vivarium. Rats were housed in a temperature- and humidity-controlled facility with a 12 h light/dark cycle. Prior to the first day of the pharmacokinetic experiment, the rats were anesthetized using isoflurane (IsoFlo, Abbott Laboratories, Abbot Park, IL, USA) coupled with an oxygen regulator, and monitored by pedal reflex and respiration rate to maintain a surgical plane of anesthesia. The right jugular veins of the rats were cannulated with sterile silastic cannulas (Dow Corning, Midland, MI, USA). After cannulation, Intramedic PE-50 polyethylene tubing (Becton, Dickinson and Company, Franklin Lakes, NJ, USA) was exposed through the dorsal skin. The cannulas were flushed with nonheparinized 0.9% sterile saline solution. The animals were placed in metabolic cages to recover and fasted overnight.
No pharmacokinetics studies are reported in the literature for 3-methoxypterostilbene. Despite the paucity of 3-methoxypterostilbene pharmacokinetic studies in the literature, studies on other stilbenes have reported intravenous (IV) dosage ranges from 10 to 20 mg/kg and from 50 to 300 mg//kg for oral (PO) dosage. In keeping with the literature, doses of 10 mg/kg IV and 100 mg/kg PO were chosen.
Male Sprague-Dawley rats (n = 8, average weight 200 g) were cannulated as described in the Animals and Surgical Procedures section. The animals were placed in metabolic cages following surgery where they were recovered overnight and fasted for 12 h prior to dosing. On the day of the experiment, the animals were dosed with 3-methoxypterostilbene in PEG 400 either IV (10 mg/kg, n = 4) or PO (100 mg/kg, n = 4). After dosing, a series of whole blood samples (0.5 mL) were collected at 0, 1, and 15 min, and 0.5, 1, 2, 4, 6, 12, 24, 48, and 72 h and 0, 0.25, 0.5, 1, 2, 4, 6, 12, 24, 48, and 72 h for IV and PO dosed rats, respectively. The cannulas were flushed with 0.5 mL 0.9% nonheparinized saline solution after each sample collection. The samples were collected into regular 2.0 mL Eppendorf tubes, centrifuged at 10,000 rpm for 5 min (Beckman Microfuge centrifuge, Beckman Coulter Inc., Fullerton, CA, USA), and the serum was collected. The serum was divided into two 0.1 mL fractions and placed into regular 2.0 mL Eppendorf tubes labeled as free and total serum samples. Samples were stored at −20°C until analyzed. Urine samples were also collected at 0, 2, 6, 12, 24, 48, and 72 h following 3-methoxypterostilbene administration. The volumes of urine produced by the rats were recorded, and two 0.1 mL aliquots were collected into separate prelabeled regular polypropylene microcentrifuge tubes and labeled as free and total urine samples and stored at −20°C until analyzed. At 72 h after dose, the animals were euthanized exsanguinated, and serum was collected.
Serum and urine samples (0.1 mL) were run in duplicate with or without the addition of 20 μL of 500 U/mL β-glucuronidase and incubated in a shaking water bath at 37°C for 2 h to liberate any glucuronide conjugates. The proteins present in the serum samples were precipitated using 1 mL of −20°C acetonitrile. […]

[2] = tested on: human peripheral blood mononuclear cells; conditions: cited from earlier work
[3] = tested on: human leukemia-derived HL60 cells; conditions: cited from earlier work
[4] = rat, intravenous 10 mg/kg, mean ± SEM
[5] = rat, oral 100 mg/kg, mean ± SEM
[6] = rat, oral 100 mg/kg, mean ± SEM, 100 mg/kg

COc1cc(/C=C/c2ccc(O)c(OC)c2)cc(OC)c1 [3-methoxypterostilbene, trans-3,3′-5-trimethoxy-4′-hydro-xystilbene]
CL renal ([1]; male, Sprague-Dawley, rat, intravenous 10 mg/kg, mean ± SEM): 12.7 mL/min/kg
CL renal ([1]; male, Sprague-Dawley, rat, oral 100 mg/kg, mean ± SEM): 0.167 mL/min/kg
AUC ([1]; male, Sprague-Dawley, serum, rat, IV 10 mg/kg, mean ± SEM): 48.1 ± 23.8 µg·h/mL
concentration at 24 h ([1]; male, Sprague-Dawley, serum, rat, IV 10 mg/kg, below detectable concentrations, read-out: Serum concentration after 24 hours): < 50 ng/mL
AUC ([1]; male, Sprague-Dawley, serum, rat, PO 100 mg/kg, mean ± SEM): 229 ± 44.6 µg·h/mL
MRT ([1]; male, Sprague-Dawley, serum, rat, intravenous 10 mg/kg, mean ± SEM): 26 ± 15 h
clearance ([1]; male, Sprague-Dawley, serum, rat, intravenous 10 mg/kg, mean ± SEM, read-out: CLtotal (converted)): 797 mL/min/kg
half-life ([1]; male, Sprague-Dawley, serum, rat, intravenous 10 mg/kg, mean ± SEM, read-out: t 1/2 serum (converted)): 18.9 ± 10.9 h
bioavailability ([1]; male, Sprague-Dawley, serum, rat, intravenous 10 mg/kg): 100%
bioavailability ([1]; male, Sprague-Dawley, serum, rat, oral 100 mg/kg vs 10 mg/kg IV, mean ± SEM): 50.6 ± 10%
MRT ([1]; male, Sprague-Dawley, serum, rat, oral 100 mg/kg, mean ± SEM): 105 ± 13.1 h
half-life ([1]; male, Sprague-Dawley, serum, rat, oral 100 mg/kg, mean ± SEM, read-out: t 1/2 serum (converted)): 73.3 ± 8.91 h
half-life ([1]; male, Sprague-Dawley, urine, rat, intravenous 10 mg/kg, mean ± SEM, read-out: t 1/2 urine (converted)): 9.54 ± 1.51 h
half-life ([1]; male, Sprague-Dawley, urine, rat, oral 100 mg/kg, mean ± SEM, read-out: t 1/2 urine (converted)): 20.6 ± 3.01 h
Tmax ([1]; male, Sprague-Dawley, rat serum, PO 100 mg/kg, average): 0.5 h
AUC(0-inf) ([1]; male, Sprague-Dawley, rat serum, intravenous 10 mg/kg, mean ± SEM): 48.1 ± 23.8 µg·h/mL
AUC(0-inf) ([1]; male, Sprague-Dawley, rat serum, oral 100 mg/kg, mean ± SEM): 229 ± 44.6 µg·h/mL
Cumulative amount excreted in urine ([1]; rat, IV 10 mg/kg (~2 mg per rat)): ~ 98 μg
Cumulative amount excreted in urine ([1]; rat, PO 100 mg/kg (20 mg per rat)): 341 µg
f e (fraction excreted in urine unchanged) [1, 4]: 1.64 ± 0.950%
Vdβ ([1]; rat, intravenous 10 mg/kg, mean ± SEM, 10 mg/kg): 5.11 ± 0.38 L/kg and 5.11 ± 0.380 L/kg
CLhepatic [1, 4]: 785 ± 388 mL/min/kg
CLtotal [1, 5]: 8 ± 1.33 mL/min/kg
f e (fraction excreted in urine unchanged) [1, 5]: 1.24 ± 0.160%
Vdβ [1, 6]: 52.0 ± 10.0 L/kg and 52.0 ± 10.5 L/kg
CLhepatic [1, 6]: 8 ± 151.33 mL/min/kg and 8 ± 1.33 mL/min/kg
Inhibition of lipopolysaccharide-induced tissue factor expression [2]: as effective as resveratrol
Apoptotic-inducing activity [3]: greater apoptotic-inducing activity than resveratrol

Source: PMC3652196, “Pharmacometrics of 3-Methoxypterostilbene: A Component of Traditional Chinese Medicinal Plants” (Evidence-based Complementary and Alternative Medicine : eCAM, 2013)
